Patent US9308198B2, “Treatment, prevention, and reversal of alcohol-induced brain disease” (priority 2006, dated 2016)

Assays:
[1] = system: primary cerebellar neuron cultures; test: Membrane cholesterol content, primary cerebellar neuron cultures; format: cell-based, rat; conditions: for membrane cholesterol content: 10 mM for 3 hours in Locke's buffer, control and ethanol-exposed cerebellar cultures
Procedure: In vitro experiments were used to examine the effects of ethanol on receptor binding and choline acetyltransferase (ChAT) and acetylcholinesterase (AChE) expression in cerebellar neurons. Primary neuronal cultures were generated with postnatal day 8 rat pup cerebellar tissue (Nikolic et al. Genes Dev. 10:816 (1996)). The cultures were maintained with Dulbecco's modified Eagle's medium (DMEM) supplemented with 5% fetal calf serum, 4 mM glutamine, 100 μM non-essential amino acid mixture (Gibco-BRL, Grand Island, N.Y.), 25 mM KCl, and 9 g/L glucose. Ethanol treatment was accomplished by placing the cultures (seeded in 6-well dishes or 96-well plates) in sealed chambers in which 50 mM ethanol was vaporized from a reservoir tray (de la Monte et al. Alcohol Clin. Exp. Res. 24:716 (2000); Banerjee et al. Alcohol Clin. Exp. Res. 22:2093 (1998)). Control cultures were identically treated but with water added to the reservoir tray. The chambers were flushed with gas containing 75% nitrogen, 20% oxygen, and 5% carbon dioxide. After 96 hours incubation at 37° C., the cells were harvested to measure insulin, IGF-I, and IGF-II receptor binding. […] To examine the effects of membrane cholesterol content on growth factor stimulated neuronal viability and function, identically treated 96-well cultures were stimulated with vehicle, 10 nM insulin, 10 nM IGF-I, or 25 nM IGF-II for 10 minutes and then analyzed for ATP content, or for 16 hours and then used to measure viability and ChAT or AChE immunoreactivity with the MICE assay (de la Monte et al., Biotechniques 26:1073 (1999)). ATP content was measured with the ATPLite assay (Packard, Meriden, Conn.). Viability was measured using the CyQuant assay (Molecular Probes, Eugene, Oreg.). Immunoreactivity was measured directly in the cultured wells using the microtiter immunocytochemical ELISA (MICE) assay (de la Monte et al., Biotechniques 26:1073 (1999)).

IGF-I receptor = test: Equilibrium binding assay, primary cerebellar neuron cultures; format: cell-based, rat
Procedure: Fresh frozen tissue (˜100 mg) was homogenized in 5 volumes of NP-40 lysis buffer (50 mM Tris-HCl, pH 7.5, 1% NP-40, 150 mM NaCl, 1 mM EDTA, 2 mM EGTA) containing protease inhibitors (1 mM PMSF, 0.1 mM TPCK, 1 μg/ml aprotinin, 1 μg/ml pepstatin A, 0.5 μg/ml leupeptin, 1 mM NaF, 1 mM Na4P2O7). Protein concentrations were determined using the bicinchoninic acid (BCA) assay (Pierce, Rockford, Ill.). Exploratory studies determined the amounts of protein and concentrations of radiolabeled ligand required to achieve 20% specific binding. Insulin receptor binding assays were performed using 100 μg protein. IGF-I binding assays required 25 μg protein per sample, and IGF-II receptor binding assays were optimized using 10 μg protein. Competitive equilibrium binding assays were used to assess growth factor binding in relation to ethanol exposure. For total binding, duplicate individual protein samples were incubated in 100 μl reactions containing binding buffer (100 mM HEPES, pH 8.0, 118 mM NaCl, 1.2 mM MgSO4, 8.8 mM dextrose, 5 mM KCl, 1% bovine serum albumin) and 100 nCi/ml of [^125I] (2000 Ci/mmol; […]) insulin, IGF-I, or IGF-II. To measure non-specific binding, replicate samples were identically prepared but with the addition of 0.1 μM unlabeled (cold) ligand.
All reactions were performed in 1.5 ml Eppendorff tubes, and the incubations were performed at 4° C. for 16 hours with gentle platform agitation. Bound radiolabeled tracer was then precipitated by adding 500 μl of 0.15% bovine gamma globulin (prepared in 100 mM Tris-HCl, pH 8.0) followed by 400 μl 37.5% polyethylene glycol 8000 (PEG-8000; prepared in 100 mM Tris-HCl, pH 8.0) to each tube. […] The samples were counted for 1 minute in an LKB CompuGamma CS Gamma counter. Specific binding was calculated by subtracting fmol of non-specific binding, i.e., amount bound in the presence of cold ligand, from the total fmol bound (absence of unlabeled competitive ligand). The results were analyzed and plotted using the GraphPad Prism 4 software (GraphPad Software, Inc., San Diego, Calif.). […]

| Molecule | cerebellar neuron membrane cholesterol content ([1]; in vitro exposure to 50 mM ethanol for 96 hours) | IGF-I receptor binding (IGF-I receptor; 50 mM ethanol for 96 hours vs control cultures) | membrane cholesterol content [1] | IGF-I receptor binding (IGF-I receptor; 10 mM for 3 hours, control cerebellar neurons) | IGF-I receptor binding (IGF-I receptor; 10 mM for 3 hours, control and ethanol-exposed cultures, relative to vehicle-treated cells) |
| --- | --- | --- | --- | --- | --- |
| CCO [ethanol] | significantly reduced | significantly reduced | – | – | – |
| CC(C)CCC[C@@H](C)[C@H]1CC[C@H]2[C@@H]3CC=C4C[C@@H](O)CC[C@]4(C)[C@H]3CC[C@]12C [cholesterol] | – | – | significantly increased | significantly impaired | – |
| Methyl-β-cyclodextrin [MβCD] | – | – | significantly reduced | – | significantly inhibited |
